Experimental data published in patent US20020137929A1, “1 - (3-heterocyclylphenyl) isothiourea, -isourea, -guanidine and -amidine herbicidal agents” (Intellectual Property Department, BASF Aktiengesellschaft, priority 1998, published 2002).

Tests used:
[1] = tested on: SETVI (Foxtail, Green); test: Postemergence herbicidal evaluation; format: in vivo, Setaria viridis
Summary of the method: (§1)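 First, seedlings were raised for around two weeks. Next, test material in 50/50 acetone/water containing 0.5% TWEEN 20 was sprayed through a nozzle at 40 psi, equivalent to about 0.0156–0.500 kg/ha. Finally, after 4–5 weeks in the greenhouse, plants were rated 0–9.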

[2] = tested on: ORYSAT (Rice, Tebonnet); test: Postemergence herbicidal evaluation; format: in vivo, Oryza sativa, (L.) Tebonnet
Summary of the method: as §1

[3] = tested on: ZEAMX (Corn, Field); test: Postemergence herbicidal evaluation; format: in vivo, Zea mays
Summary of the method: as §1

[4] = tested on: ECHCG (Barnyardgrass); test: Preemergence herbicidal evaluation; format: in vivo, Echinochloa crus-galli; details: rated 4-5 weeks after treatment
Summary of the method: (§2)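 Scores (0–9) reflect visual comparison with control plants for stand, vigor, malformation, size and chlorosis. Compound was applied to the soil after sowing, before emergence, as an aqueous acetone spray (about 0.0156–0.500 kg/ha), and cups were kept in a greenhouse for 4–5 weeks.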

[5] = tested on: SETVI (Foxtail, Green); test: Preemergence herbicidal evaluation; format: in vivo, Setaria viridis; details: rated 4-5 weeks after treatment
Summary of the method: as §2

[6] = tested on: TRZAWR (Wheat, Winter, cv Riband); test: Preemergence herbicidal evaluation; format: in vivo, Triticum aestivum; details: rated 4-5 weeks after treatment
Summary of the method: as §2

[7] = tested on: ZEAMX (Corn, Field); test: Preemergence herbicidal evaluation; format: in vivo, Zea mays; details: rated 4-5 weeks after treatment
Summary of the method: as §2

[8] = tested on: ECHORC (Watergrass (Calif.)); test: Preemergence weed control under flooded paddy conditions; format: in vivo, Echinochloa oryzoides; details: rated 3-4 weeks after treatment
Summary of the method: (§3)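 Flooded-pot preemergence screen with silt loam and seeds in the upper 0.5 cm. Dose about 0.0313 to 0.500 kg/ha, delivered into flood water; visual 0-9 score after 3 to 4 weeks.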

[9] = tested on: CYPIR (Rice Flatsedge); test: as above; format: in vivo, Cyperus iria; details: rated 3-4 weeks after treatment
Summary of the method: as §3

[10] = tested on: CYPSE (Flatsedge); test: as above; format: in vivo, Cyperus serotinus; details: rated 3-4 weeks after treatment
Summary of the method: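 Seeds or propagules sown in top 0.5 cm of silt loam soil, flooded 1.5 to 3 cm above surface throughout. Compound in 50/50 v/v aqueous/acetone pipetted into flood water at about 0.0313 to 0.500 kg/ha. Visual 0-9 rating versus control after three to four weeks in greenhouse.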

[11] = tested on: ECHORC (Watergrass (Calif.)); test: Postemergence weed control under flooded paddy conditions; format: in vivo, Echinochloa oryzoides; details: postemergence weeds, 3-4 weeks after treatment
Summary of the method: (§4)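 Containers holding 3–5 cm weeds and rice at 1.5–2.5 leaves are flooded to 1.5–3 cm above soil. Compound in 50/50 v/v aqueous/acetone is then added directly to the water, about 0.0313–0.500 kg/ha. Plants are kept in the greenhouse and rated 0–9 visually at 3–4 weeks.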

[12] = tested on: CYPIR (Rice Flatsedge); test: as above; format: in vivo, Cyperus iria; details: postemergence weeds, 3-4 weeks after treatment
Summary of the method: as §4

[13] = tested on: CYPSE (Flatsedge); test: as above; format: in vivo, Cyperus serotinus; details: postemergence weeds, 3-4 weeks after treatment
Summary of the method: as §4

[14] = tested on: SAGPY (Arrowhead (Pygmaea)); test: as above; format: in vivo, Sagittaria pygmaea; details: postemergence weeds, 3-4 weeks after treatment
Summary of the method: as §4

## CCOC(=O)CN1C(=O)C(Cc2ccccc2OC(C)C(=O)OC)SC1=Nc1cc(-n2c(=O)cc(C(F)(F)F)n(C)c2=O)c(F)cc1Cl (stereo not drawn) [Compound 50, 2-{{2-Chloro-5-[3,6-dihydro-3-methyl-2,6-dioxo-4-(trifluoromethyl)-1(2H)-pyrimidinyl]-4-fluoro-phenyl}imino}-5-(o-hydroxybenzyl)-4-oxo-3-thiazolidineacetic acid, ethyl ester, ester with methyl lactate]
[1]; Rate 0.0156 kg/ha
  Postemergence herbicidal rating SETVI: 0.0
[1]; Rate 0.0313 kg/ha
  Postemergence herbicidal rating SETVI: 0.0
[1]; Rate 0.0625 kg/ha
  Postemergence herbicidal rating SETVI: 2.0
[2]; Rate 0.0156 kg/ha
  Postemergence herbicidal rating ORYSAT: 1.0
[2]; Rate 0.0313 kg/ha
  Postemergence herbicidal rating ORYSAT: 1.0
[2]; Rate 0.0625 kg/ha
  Postemergence herbicidal rating ORYSAT: 2.0
[3]; Rate 0.0156 kg/ha
  Postemergence herbicidal rating ZEAMX: 5.0
[3]; Rate 0.0313 kg/ha
  Postemergence herbicidal rating ZEAMX: 5.0
[3]; Rate 0.0625 kg/ha
  Postemergence herbicidal rating ZEAMX: 5.5
[4]; rate 0.0625 kg/ha
  Preemergence herbicidal rating ECHCG: 0.0
[4]; rate 0.1250 kg/ha
  Preemergence herbicidal rating ECHCG: 0.0
[4]; rate 0.2500 kg/ha
  Preemergence herbicidal rating ECHCG: 0.0
[5]; rate 0.0625 kg/ha
  Preemergence herbicidal rating SETVI: 0.0
[5]; rate 0.1250 kg/ha
  Preemergence herbicidal rating SETVI: 0.0
[5]; rate 0.2500 kg/ha
  Preemergence herbicidal rating SETVI: 0.0
[6]; rate 0.0625 kg/ha
  Preemergence herbicidal rating TRZAWR: 0.0
[6]; rate 0.1250 kg/ha
  Preemergence herbicidal rating TRZAWR: 0.0
[6]; rate 0.2500 kg/ha
  Preemergence herbicidal rating TRZAWR: 0.0
[7]; rate 0.0625 kg/ha
  Preemergence herbicidal rating ZEAMX: 0.0
[7]; rate 0.1250 kg/ha
  Preemergence herbicidal rating ZEAMX: 0.0
[7]; rate 0.2500 kg/ha
  Preemergence herbicidal rating ZEAMX: 0.0
[8]; 0.0313 kg/ha
  Herbicidal rating ECHORC: 4.0
[8]; 0.0625 kg/ha
  Herbicidal rating ECHORC: 7.0
[8]; 0.1250 kg/ha
  Herbicidal rating ECHORC: 7.0
[8]; 0.2500 kg/ha
  Herbicidal rating ECHORC: 7.0
[9]; 0.0313 kg/ha
  Herbicidal rating CYPIR: 0.0
[9]; 0.0625 kg/ha
  Herbicidal rating CYPIR: 0.0
[9]; 0.1250 kg/ha
  Herbicidal rating CYPIR: 0.0
[9]; 0.2500 kg/ha
  Herbicidal rating CYPIR: 0.0
[10]; 0.0313 kg/ha
  Herbicidal rating CYPSE: 0.0
[10]; 0.0625 kg/ha
  Herbicidal rating CYPSE: 0.0
[10]; 0.1250 kg/ha
  Herbicidal rating CYPSE: 0.0
[10]; 0.2500 kg/ha
  Herbicidal rating CYPSE: 0.0
[11]; rate 0.0313 kg/ha
  Herbicidal rating ECHORC: 4.0
[11]; rate 0.0625 kg/ha
  Herbicidal rating ECHORC: 7.0
[11]; rate 0.1250 kg/ha
  Herbicidal rating ECHORC: 7.0
[11]; rate 0.2500 kg/ha
  Herbicidal rating ECHORC: 7.0
[12]; rate 0.0313 kg/ha
  Herbicidal rating CYPIR: 0.0
[12]; rate 0.0625 kg/ha
  Herbicidal rating CYPIR: 0.0
[12]; rate 0.1250 kg/ha
  Herbicidal rating CYPIR: 0.0
[12]; rate 0.2500 kg/ha
  Herbicidal rating CYPIR: 0.0
[13]; rate 0.0313 kg/ha
  Herbicidal rating CYPSE: 0.0
[13]; rate 0.0625 kg/ha
  Herbicidal rating CYPSE: 0.0
[13]; rate 0.1250 kg/ha
  Herbicidal rating CYPSE: 0.0
[13]; rate 0.2500 kg/ha
  Herbicidal rating CYPSE: 0.0
[14]; rate 0.0313 kg/ha
  Herbicidal rating SAGPY: 2.0
[14]; rate 0.0625 kg/ha
  Herbicidal rating SAGPY: 2.0
[14]; rate 0.1250 kg/ha
  Herbicidal rating SAGPY: 3.0
[14]; rate 0.2500 kg/ha
  Herbicidal rating SAGPY: 3.0

## Cn1c(C(F)(F)F)cc(=O)n(-c2cc(/N=C3/SCC(=O)N3CC(=O)O)c(Cl)cc2F)c1=O [Compound 52, 2-{{2-Chloro-5-[3,6-dihydro-3-methyl-2,6-dioxo-4-(trifluoromethyl)-1(2H)-pyrimidinyl]-4-fluoro-phenyl}imino}-4-oxo-3-thiazolidineacetic acid]
[1]; Rate 0.0158 kg/ha
  Postemergence herbicidal rating SETVI: 1.0
[1]; Rate 0.0315 kg/ha
  Postemergence herbicidal rating SETVI: 3.0
[1]; Rate 0.0630 kg/ha
  Postemergence herbicidal rating SETVI: 7.0
[2]; Rate 0.0158 kg/ha
  Postemergence herbicidal rating ORYSAT: 1.0
[2]; Rate 0.0315 kg/ha
  Postemergence herbicidal rating ORYSAT: 1.0
[2]; Rate 0.0630 kg/ha
  Postemergence herbicidal rating ORYSAT: 2.0
[3]; Rate 0.0158 kg/ha
  Postemergence herbicidal rating ZEAMX: 5.0
[3]; Rate 0.0315 kg/ha
  Postemergence herbicidal rating ZEAMX: 7.5
[3]; Rate 0.0630 kg/ha
  Postemergence herbicidal rating ZEAMX: 7.0
[4]; rate 0.0313 kg/ha
  Preemergence herbicidal rating ECHCG: 0.0
[4]; rate 0.0625 kg/ha
  Preemergence herbicidal rating ECHCG: 0.0
[4]; rate 0.1250 kg/ha
  Preemergence herbicidal rating ECHCG: 0.0
[4]; rate 0.2500 kg/ha
  Preemergence herbicidal rating ECHCG: 1.0
[5]; rate 0.0313 kg/ha
  Preemergence herbicidal rating SETVI: 0.0
[5]; rate 0.0625 kg/ha
  Preemergence herbicidal rating SETVI: 0.0
[5]; rate 0.1250 kg/ha
  Preemergence herbicidal rating SETVI: 1.0
[5]; rate 0.2500 kg/ha
  Preemergence herbicidal rating SETVI: 9.0
[6]; rate 0.0313 kg/ha
  Preemergence herbicidal rating TRZAWR: 0.0
[6]; rate 0.0625 kg/ha
  Preemergence herbicidal rating TRZAWR: 0.0
[6]; rate 0.1250 kg/ha
  Preemergence herbicidal rating TRZAWR: 2.0
[6]; rate 0.2500 kg/ha
  Preemergence herbicidal rating TRZAWR: 5.0
[7]; rate 0.0313 kg/ha
  Preemergence herbicidal rating ZEAMX: 0.0
[7]; rate 0.0625 kg/ha
  Preemergence herbicidal rating ZEAMX: 0.0
[7]; rate 0.1250 kg/ha
  Preemergence herbicidal rating ZEAMX: 1.0
[7]; rate 0.2500 kg/ha
  Preemergence herbicidal rating ZEAMX: 3.0
[8]; 0.2500 kg/ha
  Herbicidal rating ECHORC: 0.0
[9]; 0.2500 kg/ha
  Herbicidal rating CYPIR: 2.0
[10]; 0.2500 kg/ha
  Herbicidal rating CYPSE: 0.0
[11]; rate 0.2500 kg/ha
  Herbicidal rating ECHORC: 0.0
[12]; rate 0.2500 kg/ha
  Herbicidal rating CYPIR: 2.0
[13]; rate 0.2500 kg/ha
  Herbicidal rating CYPSE: 0.0
[14]; rate 0.2500 kg/ha
  Herbicidal rating SAGPY: 0.0
